From ChEMBL document CHEMBL1137878, “Synthesis and evaluation of novel oxazoline MMP inhibitors” (Bioorg Med Chem Lett, 2004)
One block for each compound: values may come before it.

How the values were obtained:
[1] = target: T1, Macrophage metalloelastase (Homo sapiens, UniProt P39900); assay: Inhibitory activity against matrix metalloprotease-12
[2] = target: T2, Interstitial collagenase (Homo sapiens, UniProt P03956); assay: Inhibitory activity against matrix metalloprotease-1; NA denotes no activity upto solubility limit
T2 sequence (P03956 whole entry): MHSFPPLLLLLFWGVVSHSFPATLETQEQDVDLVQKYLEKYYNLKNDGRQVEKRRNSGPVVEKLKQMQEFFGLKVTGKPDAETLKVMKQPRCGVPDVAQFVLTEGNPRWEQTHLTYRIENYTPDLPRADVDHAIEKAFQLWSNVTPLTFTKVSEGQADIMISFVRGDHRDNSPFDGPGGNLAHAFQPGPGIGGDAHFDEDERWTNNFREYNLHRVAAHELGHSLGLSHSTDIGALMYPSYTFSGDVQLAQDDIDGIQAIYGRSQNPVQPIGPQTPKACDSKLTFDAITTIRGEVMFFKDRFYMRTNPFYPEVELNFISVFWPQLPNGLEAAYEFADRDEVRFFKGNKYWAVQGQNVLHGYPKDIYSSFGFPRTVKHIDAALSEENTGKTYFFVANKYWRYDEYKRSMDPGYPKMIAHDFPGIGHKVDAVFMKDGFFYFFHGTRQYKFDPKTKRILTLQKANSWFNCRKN

[3] = target: T3, Matrix metalloproteinase-9 (Homo sapiens, UniProt P14780); assay: Inhibitory activity against matrix metalloprotease-9
T3 sequence (P14780 whole entry): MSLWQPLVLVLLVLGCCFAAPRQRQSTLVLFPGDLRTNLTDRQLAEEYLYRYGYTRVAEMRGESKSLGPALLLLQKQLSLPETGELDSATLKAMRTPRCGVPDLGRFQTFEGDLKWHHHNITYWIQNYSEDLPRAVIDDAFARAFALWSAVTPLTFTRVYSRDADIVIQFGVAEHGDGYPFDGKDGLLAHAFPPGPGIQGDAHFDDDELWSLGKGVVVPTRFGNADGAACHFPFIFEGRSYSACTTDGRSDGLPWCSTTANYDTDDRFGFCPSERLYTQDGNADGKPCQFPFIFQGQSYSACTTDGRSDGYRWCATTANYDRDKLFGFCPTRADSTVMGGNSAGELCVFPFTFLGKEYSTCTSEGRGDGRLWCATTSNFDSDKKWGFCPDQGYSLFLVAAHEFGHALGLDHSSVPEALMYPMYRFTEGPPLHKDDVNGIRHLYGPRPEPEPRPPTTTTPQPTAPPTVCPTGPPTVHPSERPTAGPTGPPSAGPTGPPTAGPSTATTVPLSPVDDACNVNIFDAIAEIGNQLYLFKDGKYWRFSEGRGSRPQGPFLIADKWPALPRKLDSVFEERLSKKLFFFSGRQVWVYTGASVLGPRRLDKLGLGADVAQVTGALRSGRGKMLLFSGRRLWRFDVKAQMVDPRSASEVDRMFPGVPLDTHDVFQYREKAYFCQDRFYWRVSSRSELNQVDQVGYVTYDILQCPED

[4] = target: T4, 72 kDa type IV collagenase (Homo sapiens, UniProt P08253); assay: Inhibitory activity against matrix metalloprotease-2
T4 sequence (P08253 whole entry): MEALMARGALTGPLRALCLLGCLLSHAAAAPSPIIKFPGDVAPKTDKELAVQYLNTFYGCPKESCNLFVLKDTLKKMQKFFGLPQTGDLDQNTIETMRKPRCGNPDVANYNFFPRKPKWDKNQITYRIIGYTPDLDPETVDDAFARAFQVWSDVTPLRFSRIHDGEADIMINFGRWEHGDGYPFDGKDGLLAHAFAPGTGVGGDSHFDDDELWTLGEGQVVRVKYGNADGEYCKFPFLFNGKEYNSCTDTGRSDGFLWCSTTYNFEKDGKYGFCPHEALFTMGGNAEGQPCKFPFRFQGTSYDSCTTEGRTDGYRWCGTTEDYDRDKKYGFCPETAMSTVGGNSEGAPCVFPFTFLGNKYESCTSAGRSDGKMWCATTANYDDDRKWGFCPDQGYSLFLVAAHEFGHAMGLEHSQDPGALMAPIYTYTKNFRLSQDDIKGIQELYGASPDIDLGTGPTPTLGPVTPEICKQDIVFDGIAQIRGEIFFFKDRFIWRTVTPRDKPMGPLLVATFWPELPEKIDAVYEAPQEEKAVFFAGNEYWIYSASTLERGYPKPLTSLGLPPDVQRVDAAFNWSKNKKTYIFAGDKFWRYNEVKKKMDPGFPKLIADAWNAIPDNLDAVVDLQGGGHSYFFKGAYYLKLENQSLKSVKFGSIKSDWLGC

[5] = target: T1, Macrophage metalloelastase; assay: Inhibitory activity against matrix metalloprotease-12; NA denotes no activity upto solubility limit
[6] = target: T2, Interstitial collagenase; assay: Inhibitory activity against matrix metalloprotease-1
[7] = target: T4, 72 kDa type IV collagenase; assay: Inhibitory activity against matrix metalloprotease-2; NA denotes no activity upto solubility limit
[8] = target: T3, Matrix metalloproteinase-9; assay: Inhibitory activity against matrix metalloprotease-9; NA denotes no activity upto solubility limit
[9] = target: T3, Matrix metalloproteinase-9; assay: Inhibitory activity against matrix metalloprotease-9; F denotes no activity was observed upto the concentration that fluorescence could be compensated for
[10] = target: T2, Interstitial collagenase; assay: Inhibitory activity against matrix metalloprotease-1; F denotes no activity was observed upto the concentration that fluorescence could be compensated for

T1 sequence (P39900 whole entry): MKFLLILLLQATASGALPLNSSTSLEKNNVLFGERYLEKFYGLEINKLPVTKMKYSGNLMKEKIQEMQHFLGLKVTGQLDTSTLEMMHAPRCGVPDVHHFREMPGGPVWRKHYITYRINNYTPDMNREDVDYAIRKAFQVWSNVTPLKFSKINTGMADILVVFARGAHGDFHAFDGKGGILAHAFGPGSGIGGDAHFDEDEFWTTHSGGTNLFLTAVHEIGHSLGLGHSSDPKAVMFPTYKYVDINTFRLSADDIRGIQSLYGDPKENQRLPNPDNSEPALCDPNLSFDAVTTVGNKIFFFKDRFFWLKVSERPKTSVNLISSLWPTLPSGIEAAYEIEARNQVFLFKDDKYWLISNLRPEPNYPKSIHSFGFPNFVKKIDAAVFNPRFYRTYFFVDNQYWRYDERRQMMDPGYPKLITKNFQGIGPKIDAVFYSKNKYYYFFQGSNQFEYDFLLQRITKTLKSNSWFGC

Structure (SMILES): C=C[C@@H]1OC(CCCCC)=N[C@H]1CO
Ki [3]: > 2000 µM

Structure (SMILES): C=C[C@@H]1OC(c2ccc(Cl)cc2)=N[C@H]1SC(C)=O
Ki [6]: > 100 µM
Ki [7]: No Activity

Structure (SMILES): C=C[C@@H]1OC(c2ccc(C)cc2)=N[C@H]1Sc1ccccc1
Ki [5]: No Activity
Ki [6]: 64 µM
Ki [7]: No Activity

Structure (SMILES): C=C[C@@H]1OC(c2ccc(OC)cc2)=N[C@H]1CO
Ki [2]: No Activity
Ki [8]: No Activity
Ki [5]: No Activity
Ki [7]: No Activity

Structure (SMILES): C=C[C@@H]1OC(/C=C/c2ccc(-c3ccccc3)cc2)=N[C@H]1CO
Ki [8]: No Activity
Ki [5]: No Activity
Ki [7]: No Activity

Structure (SMILES): C=C[C@@H]1OC(CCc2ccccc2)=N[C@H]1CO
Ki [2]: No Activity
Ki [8]: No Activity
Ki [7]: No Activity

Structure (SMILES): C=C[C@@H]1OC(c2ccc(F)cc2)=N[C@H]1CO
Ki [2]: No Activity
Ki [8]: No Activity
Ki [5]: No Activity
Ki [7]: No Activity

Structure (SMILES): C=C[C@@H]1OC(CCCCCCC)=N[C@H]1CO
Ki [3]: > 2000 µM

Structure (SMILES): C=C[C@@H]1OC(c2ccccc2)=N[C@H]1CO
Ki [1]: > 2000 µM
Ki [2]: No Activity
Ki [3]: > 4000 µM
Ki [4]: > 2000 µM

Structure (SMILES): C=CC1=N[C@@H](CO)[C@H](C=C)O1
Ki [2]: No Activity
Ki [8]: No Activity
Ki [5]: No Activity
Ki [7]: No Activity

Structure (SMILES): C=C[C@@H]1OC(c2ccc(C)cc2)=N[C@H]1SC(C)=O
Ki [2]: No Activity
Ki [5]: No Activity
Ki [7]: No Activity
Ki [3]: > 100 µM

Structure (SMILES): C=C[C@@H]1OC(c2ccc(Cl)cc2)=N[C@H]1S
Ki [5]: No Activity
Ki [6]: > 100 µM
Ki [7]: No Activity
Ki [3]: > 100 µM

Structure (SMILES): C=C[C@@H]1OC(c2ccc(C)cc2)=N[C@H]1S
Ki [1]: > 300 µM
Ki [6]: > 100 µM
Ki [3]: > 100 µM
Ki [4]: 88 µM

Structure (SMILES): C=C[C@@H]1OC(/C=C/c2ccccc2)=N[C@H]1SC(C)=O
Ki [1]: > 300 µM
Ki [2]: No Activity
Ki [3]: > 100 µM

Structure (SMILES): C=C[C@@H]1OC(c2ccc(Cl)cc2)=N[C@H]1Sc1ccccc1
Ki [2]: No Activity
Ki [5]: No Activity
Ki [3]: > 200 µM

Structure (SMILES): C=C[C@@H]1OC(c2ccc([N+](=O)[O-])cc2)=N[C@H]1CO
Ki [1]: > 100 µM
Ki [9]: Fluorescence interfered with assay
Ki [10]: Fluorescence interfered with assay

Structure (SMILES): C=C[C@@H]1OC(C2CCCCC2)=N[C@H]1CO
Ki [2]: No Activity
Ki [8]: No Activity
Ki [5]: No Activity
Ki [7]: No Activity

Other lines, results leading:

Ki [1]: > 300 µM
Ki [2]: No Activity
Ki [3]: 9 µM
Ki [4]: > 600 µM
Structure (SMILES): C=C[C@@H]1OC(c2ccc(Br)cc2)=N[C@H]1CO

Ki [5]: No Activity
Ki [6]: > 100 µM
Ki [7]: No Activity
Ki [3]: > 100 µM
Structure (SMILES): C=C[C@@H]1OC(/C=C/c2ccccc2)=N[C@H]1Sc1ccccc1

Ki [2]: No Activity
Ki [5]: No Activity
Ki [7]: No Activity
Ki [3]: 68 µM
Structure (SMILES): C=C[C@@H]1OC(c2ccc(C)cc2)=N[C@H]1CO

Ki [6]: > 200 µM
Ki [3]: > 100 µM
Structure (SMILES): C=C[C@@H]1OC(c2ccc(Br)cc2)=N[C@H]1S

Ki [5]: No Activity
Ki [6]: > 500 µM
Ki [7]: No Activity
Ki [3]: 6 µM
Structure (SMILES): C=C[C@@H]1OC(Cc2ccccc2)=N[C@H]1CO

Ki [5]: No Activity
Ki [6]: 92 µM
Ki [7]: No Activity
Ki [3]: 94 µM
Structure (SMILES): C=C[C@@H]1OC(/C=C/c2ccccc2)=N[C@H]1S

Ki [5]: No Activity
Ki [6]: > 300 µM
Ki [7]: No Activity
Ki [3]: 22 µM
Structure (SMILES): C=C[C@@H]1OC(/C=C/c2ccc(Br)cc2)=N[C@H]1CO

Ki [2]: No Activity
Ki [7]: No Activity
Ki [3]: > 100 µM
Structure (SMILES): C=C[C@@H]1OC(c2ccc(-c3ccccc3)cc2)=N[C@H]1Sc1ccccc1

Ki [2]: No Activity
Ki [3]: 24 µM
Structure (SMILES): C=C[C@@H]1OC(c2ccc(-c3ccccc3)cc2)=N[C@H]1CO

Ki [1]: 49 µM
Ki [6]: 32 µM
Ki [3]: 8 µM
Ki [4]: 153 µM
Structure (SMILES): C=C[C@@H]1OC(/C=C\C=C\c2ccccc2)=N[C@H]1CO

Ki [3]: 32 µM
Structure (SMILES): C=C[C@@H]1OC(c2ccc(Oc3ccccc3)cc2)=N[C@H]1CO

Ki [3]: 94 µM
Structure (SMILES): C=C[C@@H]1OC(c2ccc(Br)cc2)=N[C@H]1Sc1ccccc1

Ki [5]: No Activity
Ki [6]: > 200 µM
Ki [7]: No Activity
Ki [3]: 88 µM
Structure (SMILES): C=C[C@@H]1OC(c2ccc(Br)cc2)=N[C@H]1SC(C)=O

Ki [5]: No Activity
Ki [6]: > 400 µM
Ki [7]: No Activity
Ki [3]: 81 µM
Structure (SMILES): C=C[C@@H]1OC(c2ccc(-c3ccccc3)cc2)=N[C@H]1SC(C)=O

Ki [5]: No Activity
Ki [6]: 46 µM
Ki [7]: No Activity
Ki [3]: 65 µM
Structure (SMILES): C=C[C@@H]1OC(C#Cc2ccccc2)=N[C@H]1CO

Ki [3]: 40 µM
Structure (SMILES): C=C[C@@H]1OC(/C=C/c2ccccc2)=N[C@H]1CO

Ki [5]: No Activity
Ki [6]: > 300 µM
Ki [3]: 33 µM
Structure (SMILES): C=C[C@@H]1OC(c2ccc(Cl)cc2)=N[C@H]1CO
